Activity data for six compounds are collected here from ChEMBL document CHEMBL3045490, “N-Thiophenylethyl-2,2-dichloro-1-cyclopropanecarboxamides: modification of the amide part of carpropamid and examination of fungicidal activity” (2009).

What all share (assay type): functional
One experiment has as its system Botrytis cinerea. Put plainly: Antifungal activity against Botryotinia fuckeliana in cucumber cotyledon assessed as lesion area of the disease at 500 ug/ml after 4 days.
Experiment [1] has as its system Pseudoperonospora cubensis. Put plainly: Antifungal activity against Pseudoperonospora cubensis in cucumber assessed as lesion area of the disease at 500 ug/ml after 7 days.
The next experiment concerns Blumeria graminis. Put plainly: Antifungal activity against Blumeria graminis in wheat plant assessed as lesion area of the disease at 500 ug/ml after 10 days.
Another experiment concerns Puccinia recondita. As to the kind of experiment: Antifungal activity against Puccinia recondita in wheat plant assessed as lesion area of the disease at 500 ug/ml after 10 days.

`CC(NC(=O)C1(c2ccccc2)CC1(Cl)Cl)c1ccc(Cl)cc1` (centres undefined): the Activity entry (in the experiment with Botrytis cinerea; in experiment [1]; in the experiment on Blumeria graminis; with Puccinia recondita) was “>=80%” throughout.
Turning to `CCC1(C(=O)NCCc2ccccc2)C(C)C1(Cl)Cl` (centres undefined), the Activity result is “>=80%” in the experiment on Botrytis cinerea, 0% in experiment [1], 0.5% in the experiment with Blumeria graminis and 1.5% in the experiment with Puccinia recondita.
Taken in the same sequence, the figures for `CCC1(C(=O)NCCc2ccc(Cl)c(Cl)c2)C(C)C1(Cl)Cl` (centres undefined) were “>=80%”, 0%, “>=80%” and 3.5%.
Taken in the same sequence, the figures for `CC[C@@]1(C(=O)N[C@H](C)c2ccc(Cl)cc2)[C@@H](C)C1(Cl)Cl` [CARPROPAMIDE] were “>=80%”, 0.5%, “>=80%” and “>=80%”.
Taken in the same sequence, the figures for `CCC1(C(=O)NCCc2cc(Br)cs2)C(C)C1(Cl)Cl` (centres undefined) were less than 40%, 0%, “>=80%” and “>=80%”.
Regarding `CCC1(C(=O)NCCc2cc(Cl)cs2)C(C)C1(Cl)Cl` (centres undefined), the Activity result in the experiment on Botrytis cinerea is listed as “>=80%”; in experiment [1], “>=80%”; with Blumeria graminis it was “>=80%”; with Puccinia recondita, less than 40%.
